According to patent US5025036A, “Catechol carboxylic acids” (Hoffmann-La Roche Inc., priority 1989, dated 1991):

Columns and labels:
[1] = tested on: myeloperoxidase accumulation (acetic acid-induced colitis); test: Acetic Acid-Induced Colitis in Rats, In Vivo; design: species or system male rats (Sprague-Dawley)
Source text: The rat acetic acid-induced colitis bioassay has been described by J. E. Krawisz, et al. in Amer. J. Proc. Gastro. Col. Rec. Surg. 31: 11-18 (1980), and by P. Sharon and W. F. Stenson in Gastroenterolgy 88: 55-63 (1985) and 86: 453-460 (1984). Acetic acid-induced colitis is characterized by the movement of inflammatory cells into the colon, with the number of such cells in the mucosa being measured by the activity of myeloperoxidase, a marker enzyme for these cells. Positive desirable activity is indicated by a reduction in the high levels of myeloperoxidase caused by acetic acid. Male rats (Sprague-Dawley), weighing 150 to 300 g, were pretreated twice daily for two days with either the vehicle (water, or dimethylsulfoxide) or the test inhibitor compound suspended in water or dissolved in dimethylsulfoxide and orally administered. On the third day, the animals were dosed the same as on the previous two days, anesthetized with metofane, and 2 ml of 2.5% acetic acid was injected by syringe into the colonic lumen, followed immediately by 3 ml of air and a rinse consisting of 3 ml of phosphate-buffered saline (the acetic acid is present in the lumen for a sufficient period to cause inflammation without producing severe necrosis or irreversible damage). The animals were administered a second dose of the test compound in the same amount about 16 hours later. 24 hours after the acetic acid treatment, the animals were sacrificed, the colonic mucosa was surgically removed and homogenized in an aqueous buffer at pH 6 with a Tissumizer or similar device and myeloperoxidase was measured in the homogenate using o-phenylenediamine as a chromagen, as described by A. Voller, D. E. Bidwell and A. Bartlett in The Enzyme Linked Immunosorbent Assay (ELISA), Zoological Soc., London, 1979, pages 29-30. Control animals were pretreated with the vehicle and saline in place of acetic acid.

Carrageenan pleurisy = test: Carrageenan Pleurisy Test (In Vivo); design: species or system male Lewis rats; conditions: Rattus norvegicus, po, read-out: Rat Carrageenan Pleurisy % Inhib. of Exudate Volume
Procedure: The animals utilized in these studies were male Lewis rats (Charles River Breeding Laboratories) weighing between 230-250 g. […] At 5 or 24 hours after CG injection, the rats were killed by decapitation, exsanguinated, and the pleural cavity exposed by cutting the ribs on both sides of the sternum. The exudate fluid was removed from the pleural cavity with disposable plastic pipettes and its volume quantitated. The pleural cavity was then washed once with phosphate buffered saline containing fetal bovine serum (1:1) and the washings combined with the exudate. The total number of cells in the pleural cavity was quantitated using a Coulter Counter (Model ZM) adjusted to exclude any contaminating RBC. (Published in "Plant Flavonoids in Biology & Medicine: Biochemical, Pharmacological and Structure-Activity Relationships" p. 231-242 (1986) Alan R. Liss, Inc.)

[2] = biological target: T1, Δ^5 -lipoxygenase from rat basophilic leukemia (RBL-1) cells (Rattus norvegicus, UniProt P12527); test: In vitro test for Δ^5-lipoxygenase inhibitors (5-HETE radioimmunoassay); type: biochemical; conditions: for IC50: RBL-1 5-LO, 5-HETE formation, read-out: Inhib. of Δ^5 Lipoxygenase IC50
T1 construct: The isolated cytosolic fraction was stored in liquid N2 for up to 8 weeks without loss of 5-LO enzyme activity; endogenous in cells; host or cells: RBL-1 cells (ATCC CRL 1378), 113,000×g supernatant (cytosol)
T1 sequence (P12527 1-673): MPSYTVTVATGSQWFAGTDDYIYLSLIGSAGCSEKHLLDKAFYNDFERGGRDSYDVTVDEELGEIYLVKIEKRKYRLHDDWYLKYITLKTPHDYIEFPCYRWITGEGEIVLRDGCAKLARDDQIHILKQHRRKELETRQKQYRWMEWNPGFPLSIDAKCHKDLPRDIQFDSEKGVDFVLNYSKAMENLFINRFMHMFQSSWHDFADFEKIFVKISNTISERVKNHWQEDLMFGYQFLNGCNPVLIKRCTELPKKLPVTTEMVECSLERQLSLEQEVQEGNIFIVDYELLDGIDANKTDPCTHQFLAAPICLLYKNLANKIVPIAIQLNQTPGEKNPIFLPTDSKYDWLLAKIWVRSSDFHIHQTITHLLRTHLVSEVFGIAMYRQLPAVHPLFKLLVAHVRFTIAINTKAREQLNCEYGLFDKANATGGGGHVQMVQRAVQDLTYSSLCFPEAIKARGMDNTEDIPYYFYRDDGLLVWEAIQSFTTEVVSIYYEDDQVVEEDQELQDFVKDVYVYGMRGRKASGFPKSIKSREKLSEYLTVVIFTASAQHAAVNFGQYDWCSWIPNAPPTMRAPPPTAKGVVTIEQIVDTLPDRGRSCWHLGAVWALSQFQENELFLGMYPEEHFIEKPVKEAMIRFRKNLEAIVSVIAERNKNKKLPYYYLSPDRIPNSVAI
Procedure: RBL-1 cells (CRL 1378) were obtained from the American Type Culture Collection, Rockville, MD. DMEM and glutamine were purchased from Flow Labs, McLean, Va. FBS (Gibco, Grand Island, N.Y.) was heat-inactivated for 1 hour at 56° C. Reagents for protein determinations were obtained from Biorad, Rockville Center, N.Y. Arachidonic acid (approx. 99%), ATP (disodium salt), BHT, dextran (clinical grade), tetrasodium EDTA, gelatin, gentamycin sulfate solution, reduced glutathione, 1 M HEPES buffer, indomethacin, NaCl, reduced NADPH, Trizma 7.2, and Trizma 8.5 were purchased from Sigma Chemical, St. Louis, Mo. CaCL2 dihydrate, Norit A charcoal, and citric acid monohydrate were obtained from Fisher Scientific, Pittsburgh, Pa. […] A synthetic 5-HETE standard was supplied by Dr. M. Rosenberger, Dept. of Medicinal Chemistry, Hoffmann La-Roche, Nutley, N.J.; [see Corey, E. J., and Hashimoto, S. (1981) Tet. […] Approximately 7-9 days after thawing, RBL-1 cells growing in log phase were seeded at a density of 7500 viable cells/ml in a closed 89-liter spinner flask. […] RBL-1 cells were harvested by centrifugation at 4° C. at 1500×g for 10 minutes and were washed 3 times with ice cold 0.05M tris-hCl, pH 7.2, tetrasodium EDTA (buffer 1). The cells were washed last in 0.05M Tris-HCl containing 14 μM indomethacin, 1 mM glutathione, 1.5 mM NaCl, and 1 mM tetrasodium EDTA (buffer 2), resuspended at a density of 5×108'/ml approximately 10 ml) and disrupted manually at 4° C. using a 40 ml Dounce (type A pestle) homogenizer. After 5 minutes of homogenization, 95% cell lysis was confirmed by phase contrast microscopy. The broken cells were diluted 1:2 with buffer 2 and centrifuged at 12,380×g for 10 minutes at 4° C. to pellet cellular debris and granules. The 12,380×g supernatant was centrifuged at 113,000×g for 60 minutes to pellet microsomes. The high-speed supernatant (5.9±0.48 mg/ml protein) was frozen immediately in 1 ml aliquots using a dry ice/acetone bath. The isolated cytosolic fraction was stored in liquid N2 for up to 8 weeks without loss of 5-LO enzyme activity. Compounds were dissolved at 25 mM concentration in DMSO, then diluted to final concentrations using 95% ethanol. For a typical enzyme assay, the partially purified 5-LO preparation was preincubated with drug or vehicle for 10 minutes at 30° C. The assay tubes were then transferred at a 37° C. water bath where they received arachidonic acid (8.25 μM final concentration) to initiate 5-LO activity. […] The samples were immediately cooled on ice and neutralized by dilution with 0.05M Tris-HCl, pH 8.5, which contained 25 mg/1 BHT. A boiled cytosol control was placed at the end of each assay to emasure non-enzymatic oxidation of arachidonic acid. […] Under the assay conditions described, the 5-LO catalyzed the conversion of arachidonic acid to 5-HPETE which, as a consequence of peroxidase activity, was reduced to 5-HETE. A specific radioimmunoassay was employed to quantitate the amount (pmoles) of 5-HETE formed during the enzyme reaction. To prepare the immunogen, Dr. M. Rosenberger (Dept. of Medicinal Chemistry) converted the racemic 5-HETE lactone (Corey, E. J., and Hashimoto, S. (1981) Tet. Letters, 22, 299-302) to its hydrazine derivative. The hydrazide was conjugated to thiolated Keyhole Limpet Hemocyanin (Young, […]., and Rokach, J. (1982) Prostaglandins 23, 603-613) using N-ethyl-maleimide as previously described for LTB4 by (Young, R., N, Zomboni, R. and Rokach, J. 91983) Prostaglandins, 26, 605-613). New Zealand White rabbits received multiple intradermal injections on their backs with […] conjugate emulsified in complete Freund's adjuvant. A schedule of injections reported by Salmon (Salmon, J. A. (1978) Prostaglandins, 15, 383-397) was followed. After the monthly i.p. booster injections, blood was obtained from the marginal ear vein 5-7 days later and assessed for antibody titer. […]

CCCc1c(OCCCCCc2ccc(O)c(O)c2)ccc(C(C)=O)c1O [1-[4-[5-(3,4-Dihydroxyphenyl)pentyloxy]-2-hydroxy-3-propylphenyl]-1-ethanone]
Rat Acetic Acid Colitis Model % Inhib. of Myeloperoxidase Accumulation ([1]; 10 mg/kg p.o): 52 ± 6%

Nc1cc(C(=O)O)ccc1OCCCCCCc1cccc(O)c1O [3-Amino-4-[6-(2,3-dihydroxyphenyl)hexyloxy]benzoic acid]
Rat Acetic Acid Colitis Model % Inhib. of Myeloperoxidase Accumulation ([1]; 1 mg/kg p.o): 55 ± 7%

CCCc1c(OCCCCCCc2cccc(OC(C)=O)c2OC(C)=O)ccc(C(=O)O)c1O [4-[6-[2,3-Bis(acetyloxy)phenyl]hexyloxy]-2-hydroxy-3-propylbenzoic acid]
inhibition in vivo at 75 mg/kg (Carrageenan pleurisy; at 75 mg/kg p.o): 43%
IC50 [2]: 150 nM

CCCc1c(OCCCCCC(=O)c2ccc(O)c(O)c2)ccc(C(=O)O)c1O [4-[[6-(3,4-Dihydroxyphenyl)-6-oxohexyl]oxy]-2-hydroxy-3-propylbenzoic acid]
inhibition at 1 µM ([2]; read-out: Inhib. of Δ^5 Lipoxygenase, % inhibition at 1 μM): 51%

CCCc1c(OCCCCCc2c(Cl)ccc(O)c2O)ccc(C(=O)O)c1O [4-[5-(2-Chloro-5,6-dihydroxyphenyl)pentyloxy]-2-hydroxy-3-propylbenzoic acid]
Rat Acetic Acid Colitis Model % Inhib. of Myeloperoxidase Accumulation ([1]; 3 mg/kg p.o): 54 ± 9%

CCCc1c(OCCCCCc2c(O)c(O)cc(Cl)c2Cl)ccc(C(=O)O)c1O [4-[5-(2,3-Dichloro-5,6-dihydroxyphenyl)pentyloxy]-2-hydroxy-3-propylbenzoicacid]
Rat Acetic Acid Colitis Model % Inhib. of Myeloperoxidase Accumulation ([1]; 1 mg/kg p.o): 73 ± 5%

CCCc1c(OCCCCCCc2cccc(O)c2O)ccc(C(C)=O)c1O [1-[4-[6-(2,3-Dihydroxyphenyl)hexyloxy]]
Rat Acetic Acid Colitis Model % Inhib. of Myeloperoxidase Accumulation ([1]; 10 mg/kg p.o): 51 ± 5%

CCCc1c(OCCCCCC(=O)c2cc(O)c(O)cc2F)ccc(C(=O)O)c1O [4-[[6-(2-Fluoro-4,5-dihydroxyphenyl)-6-oxohexyl]oxy]-2-hydroxy-3-propylbenzoic acid]
Rat Acetic Acid Colitis Model % Inhib. of Myeloperoxidase Accumulation ([1]; 10 mg/kg p.o): 40 ± 5%

CCCc1c(OCCCCCCc2cccc(O)c2O)ccc(C(=O)O)c1OC(C)=O [2-Acetyloxy-4-[6-(2,3-dihydroxyphenyl)hexyloxy]-3-propylbenzoic acid]
inhibition in vivo at 100 mg/kg (Carrageenan pleurisy; at 100 mg/kg p.o): 42%
IC50 [2]: 190 nM

CCCc1c(OCCCCCc2c(O)c(O)c(Cl)c(Cl)c2Cl)ccc(C(=O)O)c1O [4-[5-(2,3,4-Trichloro-5,6-dihydroxyphenyl)pentyloxy]-2-hydroxy-3-propylbenzoic acid]
Rat Acetic Acid Colitis Model % Inhib. of Myeloperoxidase Accumulation ([1]; 1 mg/kg p.o): 115 ± 21%

CCCc1c(OCCCc2cccc(O)c2O)ccc(C(=O)O)c1O [4-[3-(2,3-Dihydroxyphenyl)propoxy]-2-hydroxy-3-propylbenzoic acid]
Rat Acetic Acid Colitis Model % Inhib. of Myeloperoxidase Accumulation ([1]; 10 mg/kg p.o): 54 ± 5%

CCCc1c(OCCCCCCc2cc(C)c(O)c(O)c2C)ccc(C(=O)O)c1O [4-[[6-(3,4-Dihydroxy-2,5-dimethylphenyl)hexyloxy]-2-hydroxy-3-propylbenzoicacid]
Rat Acetic Acid Colitis Model % Inhib. of Myeloperoxidase Accumulation ([1]; 3 mg/kg p.o): 37 ± 6%
Rat Acetic Acid Colitis Model % Inhib. of Myeloperoxidase Accumulation ([1]; 10 mg/kg p.o): 85 ± 13%

CCCc1c(OCCc2ccc(O)c(O)c2)ccc(C(=O)O)c1O [4 [2 (3,4 Dihydroxyphenyl)ethoxy]-2 hydroxy 3 propylbenzoic acid]
Rat Acetic Acid Colitis Model % Inhib. of Myeloperoxidase Accumulation ([1]; 10 mg/kg p.o): 56 ± 6%
